Measurements reported in publication PMC3189207, “DomPep—A General Method for Predicting Modular Domain-Mediated Protein-Protein Interactions” (PLoS ONE, 2011).
Residues, ends and D or L forms follow the SMILES beside them.

How the values were obtained:
Scrib PDZ-1 domain = target: T1, Scrib PDZ-1 domain (Homo sapiens, UniProt Q14160); experiment: In-solution fluorescence polarization binding of peptides to Scrib PDZ1; settings: Kd value of 100 µM applied as binding cutoff, NB without definition, read-out: Kd (µM) PDZ1
T1 construct: ROC curves of DomPep prediction for the three Scrib PDZ-1/2/3 domains

Scrib PDZ-2 domain = target: T2, Scrib PDZ-2 domain (Homo sapiens, UniProt Q14160); experiment: In-solution fluorescence polarization binding of peptides to Scrib PDZ2; settings: Kd value of 100 µM applied as binding cutoff, NB without definition, read-out: Kd (µM) PDZ2
T2 construct: ROC curves of DomPep prediction for the three Scrib PDZ-1/2/3 domains
T2 sequence (Q14160 862-950 limits assumed): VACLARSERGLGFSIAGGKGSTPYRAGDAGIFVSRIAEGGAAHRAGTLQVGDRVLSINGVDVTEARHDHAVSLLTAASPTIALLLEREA

Scrib PDZ-3 domain = target: T3, Scrib PDZ-3 domain (Homo sapiens, UniProt Q14160); experiment: In-solution fluorescence polarization binding of peptides to Scrib PDZ3; settings: Kd value of 100 µM applied as binding cutoff, NB without definition
T3 construct: ROC curves of DomPep prediction for the three Scrib PDZ-1/2/3 domains
T3 sequence (Q14160 1004-1093 limits assumed): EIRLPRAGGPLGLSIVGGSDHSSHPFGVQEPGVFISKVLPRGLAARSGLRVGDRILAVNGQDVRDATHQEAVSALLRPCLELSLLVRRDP
From the text: Because DomPep compared favorably to MDSM in identifying ligands for a PDZ domain included in the training set and to SPSSM in identifying binding peptides for an untrained PDZ domain, we next tested it whether it could reliably PPIs mediated by a PDZ domain on the genome scale. To this end, we employed three DomPep models to predict interactions between the Scrib PDZ domains and human proteins from the Swiss-Prot protein database. The three prediction models, which were generated for the mouse Scrib PDZ-1, PDZ-2 and PDZ-3 domains, were trained with 6, 5 and 30 positive peptide, respectively (Table S1). Searching the protein database with these models yielded a list of potential PDZ ligands. […] This experiment identified 14, 14, and 38 positives for the PDZ-1, -2, and -3 domains, respectively (Table 1). […] Importantly, we identified four peptides that were not included in the training set as physiological binders to the Scrib PDZ domains. The corresponding proteins, namely APC, LPP, VANGL2 and ZO2, were previously reported to interact with Scrib in vivo via its PDZ domains, [36], [37], [38], [39].
Figure 4 Application of DomPep to the prediction of PDZ-binding ligands. ROC curves of DomPep prediction for the three Scrib PDZ-1/2/3 domains using 56 peptides selected from the human protein database as the test set. The respective affinities of the three domains for the 56 peptides were measured by fluorescence polarization (Table 1).

T1 sequence (Q14160 728-815 limits assumed): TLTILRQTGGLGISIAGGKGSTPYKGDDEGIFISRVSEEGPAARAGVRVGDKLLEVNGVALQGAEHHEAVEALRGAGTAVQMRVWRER

Kd (Scrib PDZ-1 domain) [µM] | Kd (Scrib PDZ-2 domain) [µM] | Kd (Scrib PDZ-3 domain) [µM] | Structure (SMILES)
> 100 | > 100 | > 100 | CC(C)C[C@H](NC(=O)[C@@H](NC(=O)[C@H](CCCCN)NC(=O)[C@H](CC(C)C)NC(=O)[C@H](Cc1ccccc1)NC(=O)[C@H](CCCCN)NC(=O)[C@H](CCC(=O)O)NC(=O)[C@H](Cc1ccccc1)NC(=O)[C@H](CC(=O)O)NC(=O)[C@@H](N)CCC(N)=O)[C@@H](C)O)C(=O)O [MTERFD1] (H-QDFEKFLKTL-OH; N-terminus and C-terminus assumed)
> 100 | > 100 | > 100 | CC(C)C[C@H](NC(=O)[C@@H](N)C(C)C)C(=O)N[C@@H](CCC(N)=O)C(=O)N[C@@H](CCCNC(=N)N)C(=O)N[C@@H](Cc1c[nH]cn1)C(=O)N[C@H](C(=O)N[C@H](C(=O)NCC(=O)N[C@@H](CCCCN)C(=O)N[C@@H](C)C(=O)O)[C@@H](C)O)[C@@H](C)O [ACBD6] (H-VLQRHTTGKA-OH; N-terminus and C-terminus assumed)
> 100 | > 100 | 186 | CC(C)[C@H](NC(=O)[C@H](CCCNC(=N)N)NC(=O)[C@@H](N)CC(=O)O)C(=O)N[C@@H](C)C(=O)N[C@@H](CCC(=O)O)C(=O)N[C@@H](CCC(N)=O)C(=O)N[C@@H](CC(=O)O)C(=O)N[C@H](C(=O)N[C@@H](CCC(N)=O)C(=O)N[C@@H](C)C(=O)O)[C@@H](C)O [MPG] (H-DRVAEQDTQA-OH)
> 100 | > 100 | > 100 | CC[C@H](C)[C@H](NC(=O)CNC(=O)[C@@H](NC(=O)CNC(=O)[C@H](Cc1c[nH]cn1)NC(=O)[C@H](CC(C)C)NC(=O)[C@H](Cc1c[nH]cn1)NC(=O)[C@@H](N)CC(C)C)[C@@H](C)O)C(=O)N[C@@H](CCC(N)=O)C(=O)N[C@H](C(=O)O)C(C)C [EPHA7] (H-LHLHGTGIQV-OH; N-terminus and C-terminus assumed)
> 100 | > 100 | 88.1 | CC(C)C[C@H](NC(=O)[C@H](CCC(=O)O)NC(=O)[C@H](CCC(=O)O)NC(=O)[C@H](CCCNC(=N)N)NC(=O)[C@@H](NC(=O)[C@H](C)NC(=O)[C@H](CO)NC(=O)[C@@H](NC(=O)[C@H](CCCCN)NC(=O)[C@@H](N)CCC(=O)O)C(C)C)[C@@H](C)O)C(=O)O (H-EKVSATREEL-OH)
> 100 | > 100 | > 100 | CC[C@H](C)[C@H](NC(=O)[C@@H](NC(=O)[C@H](Cc1ccccc1)NC(=O)[C@H](CCC(=O)O)NC(=O)[C@@H]1CCCN1C(=O)[C@H](CC(N)=O)NC(=O)[C@@H](NC(=O)[C@@H](N)Cc1ccc(O)cc1)[C@@H](C)O)C(C)C)C(=O)N[C@@H](CC(N)=O)C(=O)N[C@H](C(=O)O)C(C)C [PRKCB1] (H-YTNPEFVINV-OH; N-terminus and C-terminus assumed)
> 100 | > 100 | > 100 | CC(C)C[C@H](NC(=O)[C@H](CCCCN)NC(=O)[C@H](CO)NC(=O)[C@H](CC(N)=O)NC(=O)[C@@H](NC(=O)[C@H](CO)NC(=O)[C@H](Cc1c[nH]cn1)NC(=O)[C@@H]1CCCN1C(=O)[C@H](CC(C)C)NC(=O)[C@@H](N)CCC(=O)O)C(C)C)C(=O)O [ZADH2] (H-ELPHSVNSKL-OH; N-terminus and C-terminus assumed)
> 100 | > 100 | > 100 | CC(C)C[C@H](NC(=O)[C@H](C)NC(=O)[C@@H](NC(=O)[C@H](CO)NC(=O)[C@@H](N)CO)[C@@H](C)O)C(=O)N[C@@H](Cc1c[nH]cn1)C(=O)N[C@@H](CCC(N)=O)C(=O)N[C@@H](Cc1c[nH]cn1)C(=O)N[C@@H](Cc1c[nH]cn1)C(=O)N[C@@H](Cc1ccccc1)C(=O)O [LIMD1] (H-SSTALHQHHF-OH; N-terminus and C-terminus assumed)
